# Laboratory results taken from patent publication US20260297101A1 (AbbVie Inc., priority 2015, published 2026).
# How the values were obtained:
# [1] = Multiple-dose escalation pharmacokinetics in healthy subjects (Study 2-Part 1); conditions: 24 mg BID IR, Day 14, from Cmax to Ctrough ratio, harmonic mean ± pseudo-SD, 20160 min
# Description: Both evaluations followed randomized, double-blind, placebo-controlled designs.
# Study drug was administered approximately 30 minutes after a standard breakfast (in the morning) or a snack (in the evening). […] Subjects were confined to the study site and supervised for approximately 18 days.
# Samples quantified below the LLOQ were reported as zero.
# Renal clearance (CLr) was calculated as Au, 0-12/AUC0-12 at steady state.
# Statistical analyses were performed using SAS software (Version 9.3; SAS institute Inc., Cary, NC, USA).
# [2] = QD ER tablet
# Description: (§1) Part 1 was a multiple-dose, open-label, multiple-cohort study. Two sequential multiple-ascending dose levels (Low Dose and High Dose levels) were evaluated in the 12 to <18 years age group (Group 1), and one dose level (Low Dose) was evaluated in the two younger age groups (Group 2: 6 to <12 years, and Group 3: 2 to <6 years). Low Dose and High Dose cohorts in age group 1 enrolled 9 subjects each.
# (§2) The study enrolled at least 10 subjects below 30 kg. Recruitment of subjects was conducted through a staggered approach based on age. […] Part 3 was an additional safety cohort. […] Part 3 was open to age groups in which Part 1 enrollment was completed. […] Doses were adjusted during the study for any of the body weight categories after review of results from the subjects who completed Study Part 1.
# (§3) In Part 1, the dose was administered according to three body weight categories. Subjects were categorized based on age group, and the dose administered for seven consecutive days will be based on three different body weight categories per dose level shown in Table 29.
# (§4) Patients (N=51) diagnosed with pcJIA were enrolled into one of four groups in an open-label, multiple-dose study (Group 1, 12 to <18 years, low dose; Group 2, 12 to <18 years, high dose; Group 3, 6 to <12 years, low dose; Group 4, 2 to <6 years, low dose). […]
# clinical = conditions: human, in vivo, po, functional half-life (t1/2), BID IR oral solution
# Description: as §1, §2, §3, §4
# [3] = Solubility of upadacitinib in different aqueous media at 37 °C; conditions: low pH
SMILES,t1/2F (functional half-life) [1] [h],time to maximum upadacitinib concentration (Tmax) [2],half-life (clinical) [h],solubility [3]
"CC[C@@H]1CN(C(=O)NCC(F)(F)F)C[C@@H]1c1cnc2cnc3[nH]ccc3n12 [Compound 1, (3S,4R)-3-ethyl-4-(3H-imidazo[1,2-a]pyrrolo[2,3-e]pyrazin-8-yl)-N-(2,2,2-trifluoroethyl) pyrrolidine-1-carboxamide]",3.3 ± 0.4,–,–,–
"CC[C@@H]1CN(C(=O)NCC(F)(F)F)C[C@@H]1c1cnc2cnc3[nH]ccc3n12 [upadacitinib, (3S,4R)-3-ETHYL-4-(3H-IMIDAZO[1,2-a]PYRROLO[2,3-e]-PYRAZIN-8-YL)-N-(2,2,2-TRIFLUOROETHYL)PYRROLIDINE-1-CARBOXAMIDE]",–,approximately 3 hours,~2,good solubility at low pH
